Laboratory results reported in patent US12319677B2, “Process for the production of 5-(4-((2S,5S)-5-(4-chlorobenzyl)-2-methyl-morpholino)piperidin-1-yl)-1H-1,2,4-triazol-3-amine” (Molecure S.A., priority 2019, dated 2025).
Several values for one entry are separate records, joined by “and”; a condition that tells them apart may be missing. Identical values can stand only once. One block for each compound: values may come before it.

Tests used:
Assay type in all cases: physicochemical
[1] = Particle size distribution (PSD), Malvern Mastersizer 2000 in Isopar G; conditions: three batches of the anhydrous form made by method D
Description: The synthesis of the compound of formula 1 hydrated form I followed by the synthesis of the compound of the formula 1 anhydrous form has a significant advantage as compared to the synthesis of the compound of formula 1 described in WO 2017/037670. Under new conditions, the precipitation of the compound of the formula 1 hydrated form I unobviously allows to control the amount of residual hydrazine which is considered as a genotoxic impurity and must be controlled at ppm levels. The method outlined in the previous paragraph was used for the synthesis of three batches of the anhydrous form of the compound of formula 1. This material was carefully analyzed for purity, residual hydrazine level and particle size distribution.
PSD data were recoded with Malvern Mastersizer 2000 in Isopar G.

[2] = Solid-state stability of the hydrated forms upon drying; conditions: leads to amorphous form
Description: Due to the fact that the compound of formula 6 is not stable in methanol, it is not possible to obtain the hydrated form II directly from the compound 6 as for hydrated form I of the compound of formula 1. Both hydrated forms I and II of the compound of formula 1 are unstable, leading to amorphous form upon drying. The XPRD data for the dried material and data calculated from X-ray structure differ. […] The amorphous form of the compound of formula 1 can be prepared in a more convenient way by melting the anhydrous form or hydrated form I or II of the compound of formula 1 followed by cooling off the material to ambient temperature. After grinding the glass-like solid, […] of the compound of formula 1 is an off-white solid.

[3] = Stability of process intermediates (in methanol / as free base)
Description: Under conditions described in the patent application WO 2017/037670 (sodium triacetoxy-borohydride, acetic acid and 1,2-dichloroethane), the compound of formula 11 reacts with N-Boc-4-piperidinone leading to a by-product of formula 12 which is observed in crude compound of formula 3. The impurity of formula 12 can be removed by the careful purification on silica gel but such an approach is unacceptable on a kilo-scale. […] Since the compound of formula 11 can be easily removed by crystallization after removal of the tert-butoxycarbonyl protection group, the present invention relates to a method for the synthesis of the compound of formula 5 with no impurity of formula 13. Moreover, the conditions described in this application unobviously allow one to use hydrochloride salt of the compound of formula 2 as the starting material which can facilitate the process. […]
Due to the fact that the compound of formula 6 is not stable in methanol, it is not possible to obtain the hydrated form II directly from the compound 6 as for hydrated form I of the compound of formula 1. […] The XPRD data for the dried material and data calculated from X-ray structure differ. […]

- Particle size distribution D10 [1]: 152 μm and 202 μm and 154 μm
- Particle size distribution D50 [1]: 255 μm and 357 μm and 284 μm
- Particle size distribution D90 [1]: 403 μm and 577 μm and 485 μm
SMILES: C[C@H]1CN(C2CCN(c3nc(N)n[nH]3)CC2)[C@@H](Cc2ccc(Cl)cc2)CO1 [1, anhydrous form, 5-(4-((2S,5S)-5-(4-chlorobenzyl)-2-methylmorpholino)piperidin-1-yl)-1H-1,2,4-triazol-3-amine]

- Stability of crystalline form [2]: unstable
SMILES: C[C@H]1CN(C2CCN(c3nc(N)n[nH]3)CC2)[C@@H](Cc2ccc(Cl)cc2)CO1 [1, hydrated form I, 5-(4-((2S,5S)-5-(4-chlorobenzyl)-2-methylmorpholino)piperidin-1-yl)-1H-1,2,4-triazol-3-amine]

- Stability of free base ([3]; free base (oil), must be kept as a salt to prevent decomposition): limited stability
SMILES: C[C@H]1CN[C@@H](Cc2ccc(Cl)cc2)CO1 [compound 2, (2S,5S)-5-(4-chlorobenzyl)-2-methylmorpholine]

- Stability in methanol ([3]; in methanol): not stable
SMILES: CS/C(=N\C#N)N1CCC(N2C[C@H](C)OC[C@@H]2Cc2ccc(Cl)cc2)CC1 [compound 6, methyl (Z)-4-((2S,5S)-5-(4-chlorobenzyl)-2-methylmorpholino)-N-cyanopiperidine-1-carbimidothioate]
